Test results published in patent US6838481B1, “Skin whitener” (LG Household & Health Care Ltd., priority 1998, dated 2005).

Legend:
[1] = test system: B-16 mouse melanoma cells; experiment: Melanin formation inhibiting effects of EL-1 at the cellular level; type: cell-based; conditions: for Melanin formation amount: cultured 3 days, repetition number = 3; for Inhibition ratio (%): melanin formation relative to control; for Cell toxicity: final conc. 10 μg/ml
Protocol: The whitening effect was tested at the cellular level by adding EL-1 obtained from the above EXAMPLES 1 to 7 to a cultured solution of B-16 mouse melanoma cells (Lotan R., Lotan D. Cancer Res. 40:3345-3350, 1980) as follows.
The EL-1 obtained in EXAMPLES 1 to 7 was added to a culture solution of B-16 mouse melanoma cells so that the final concentrations become 1 μg/ml, 5 μg/ml and 50 μg/ml respectively, and they were cultured for 3 days. After trypsin was added to the cells and the solution was removed from the culture container and centrifuged, melanin was extracted. 1 ml of sodium hydroxide solution (1 N concentration) was added to the extracted melanin and boiled for about 10 minutes to dissolve the melanin. The test was carried out in a way whereby the formed melanin amount was represented in absorbance per unit cell number, expressed as A400/10^6 cells by measuring the absorbance at 400 nm. After repeating this test 3 times, the melanin formation amount relative to the control was calculated as an inhibition ratio (%) using the average values.

[2] = test system: B-16 mouse melanoma cells; experiment: as above; type: cell-based; conditions: concentration of 50 μg/ml

`C=C1CCC2C(/C=C(\C)C(=O)C3(OC(C)=O)CC(C)C(OC(=O)c4ccccc4)C3C1OC(C)=O)C2(C)C` (stereo not drawn) [EL-1, 5,15-diacetyl-3-benzoyllathyrol] was tested, and the Melanin formation amount ([1]; final conc. 1 μg/ml) was 0.032 ± 0.001 A400/10^6 cells, the “Inhibition ratio (%)” value ([1]; final conc. 1 μg/ml) was 28% and the Melanin formation amount ([1]; final conc. 5 μg/ml) was 0.019 ± 0.003 A400/10^6 cells. The “Inhibition ratio (%)” value ([1]; final conc. 5 μg/ml) was 57%, the Melanin formation amount ([1]; final conc. 50 μg/ml) was 0.007 ± 0.001 A400/10^6 cells and the “Inhibition ratio (%)” value ([1]; final conc. 50 μg/ml) was 85%. For the same compound, the “Melanin synthesis inhibiting effect” value ([1]; mouse B-16 melanoma cells treated) was “very strong melanin synthesis inhibiting effect” and the Cell toxicity [2] was “does not show cell toxicity”.

With `Oc1ccc(O)cc1` [Hydroquinone, reference compound] the Melanin formation amount ([1]; final conc. 1 μg/ml) was 0.025 ± 0.002 A400/10^6 cells, the “Inhibition ratio (%)” value ([1]; final conc. 1 μg/ml) was 43% and the Cell toxicity [1] was “Cell extinction”. For the same compound, the Cell toxicity ([1]; listed as hydroquinone) was “high cell toxicity”.
